Experimental data from the supplement of paper PMC10307832.

Experiments:
Test in all cases: relative viability (nuclei count vs DMSO), 5 days (fraction); higher = more cells survive
EHT 1864 + Navitoclax = compound: C1COCCN1CC2=CC(=O)C(=CO2)OCCCCCSC3=C4C=CC(=CC4=NC=C3)C(F)(F)F [EHT 1864] + CC1(C)CCC(c2ccc(Cl)cc2)=C(CN2CCN(c3ccc(C(=O)NS(=O)(=O)c4ccc(N[C@H](CCN5CCOCC5)CSc5ccccc5)c(S(=O)(=O)C(F)(F)F)c4)cc3)CC2)C1 [Navitoclax] (partner 0.5 µM)
In short: (§1)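 Cells from lung cancer lines were seeded into 1536-well plates and, one day later, dosed by pin tool. Treatments were either a single drug or a fixed dose of an anchor drug with five library-drug doses (not always all listed) in √10 steps. After 5 days, nuclei were stained in a one-step fixation (final 0.05% Triton X-100, 1% formaldehyde, 1 ug/ml Hoechst) and counted on 4× images, and relative viability is the treated-to-vehicle nuclei ratio, as the median of duplicate plates.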

EHT 1864 + Crizotinib = compound: C1COCCN1CC2=CC(=O)C(=CO2)OCCCCCSC3=C4C=CC(=CC4=NC=C3)C(F)(F)F [EHT 1864] + C[C@@H](Oc1cc(-c2cnn(C3CCNCC3)c2)cnc1N)c1c(Cl)ccc(F)c1Cl [Crizotinib] (partner 1 µM)
In short: as §1

EHT 1864 + Tozasertib = compound: C1COCCN1CC2=CC(=O)C(=CO2)OCCCCCSC3=C4C=CC(=CC4=NC=C3)C(F)(F)F [EHT 1864] + Cc1cc(Nc2cc(N3CCN(C)CC3)nc(Sc3ccc(NC(=O)C4CC4)cc3)n2)n[nH]1 [Tozasertib] (partner 0.1 µM)
In short: as §1

EHT 1864 + Vorinostat = compound: C1COCCN1CC2=CC(=O)C(=CO2)OCCCCCSC3=C4C=CC(=CC4=NC=C3)C(F)(F)F [EHT 1864] + O=C(CCCCCCC(=O)Nc1ccccc1)NO [Vorinostat] (partner 1 µM)
In short: as §1

Cell Line | relative viability (EHT 1864 + Navitoclax; first compound 0.04 µM) | relative viability (EHT 1864 + Navitoclax; first compound 0.1265 µM) | relative viability (EHT 1864 + Navitoclax; first compound 0.4 µM) | relative viability (EHT 1864 + Navitoclax; first compound 1.265 µM) | relative viability (EHT 1864 + Navitoclax; first compound 4 µM) | relative viability (EHT 1864 + Crizotinib; first compound 0.04 µM) | relative viability (EHT 1864 + Crizotinib; first compound 0.1265 µM) | relative viability (EHT 1864 + Crizotinib; first compound 0.4 µM) | relative viability (EHT 1864 + Crizotinib; first compound 1.265 µM) | relative viability (EHT 1864 + Crizotinib; first compound 4 µM) | relative viability (EHT 1864 + Tozasertib; first compound 0.04 µM) | relative viability (EHT 1864 + Tozasertib; first compound 0.1265 µM) | relative viability (EHT 1864 + Tozasertib; first compound 0.4 µM) | relative viability (EHT 1864 + Tozasertib; first compound 1.265 µM) | relative viability (EHT 1864 + Tozasertib; first compound 4 µM) | relative viability (EHT 1864 + Vorinostat; first compound 0.04 µM) | relative viability (EHT 1864 + Vorinostat; first compound 0.1265 µM) | relative viability (EHT 1864 + Vorinostat; first compound 0.4 µM) | relative viability (EHT 1864 + Vorinostat; first compound 1.265 µM) | relative viability (EHT 1864 + Vorinostat; first compound 4 µM)
NCI-H1666 | 0.881 | 0.834 | 0.957 | 0.965 | 0.92 | 0.771 | 0.867 | 1.2 | 0.965 | 1.01 | 0.646 | 0.591 | 0.543 | 0.647 | 0.554 | 1.02 | 0.987 | 0.899 | 0.986 | 1.05
NCI-H2087 | 0.86 | 0.894 | 0.865 | 0.829 | 0.743 | 0.872 | 0.662 | 0.698 | 0.737 | 0.753 | 0.373 | – | 0.291 | 0.241 | 0.202 | 0.436 | – | 0.798 | 0.727 | 0.572
LU99A | 0.689 | 0.566 | 0.716 | 0.818 | 0.933 | 0.604 | 0.489 | 0.575 | 0.593 | 0.537 | 0.295 | 0.254 | 0.253 | 0.244 | 0.216 | 0.58 | 0.347 | 0.426 | 0.579 | 0.324
HCC-366 | 1.14 | – | 1.01 | 0.995 | 1.14 | 0.434 | – | 0.423 | 0.554 | 0.487 | 0.13 | 0.168 | 0.0914 | 0.0579 | 0.0542 | 0.336 | 0.0895 | 0.312 | 0.327 | 0.337
EKVX | 0.937 | 0.906 | 0.88 | 0.857 | 1.03 | 1.05 | 0.721 | 0.857 | 0.947 | 0.855 | 0.4 | 0.371 | 0.369 | 0.351 | 0.349 | 0.749 | 0.524 | 0.69 | 0.743 | 0.631
NCI-H1755 | 1.02 | 0.927 | 0.94 | 0.979 | 0.869 | 0.891 | 0.833 | 0.794 | 0.814 | 0.845 | 0.606 | 0.51 | 0.483 | 0.487 | 0.536 | 1 | 0.808 | 0.748 | 0.75 | 0.811
NCI-H647 | 0.981 | 0.837 | 1.17 | 1.12 | 1.05 | 1 | 0.922 | 0.903 | 0.992 | 0.911 | 0.218 | 0.169 | 0.414 | 0.175 | 0.132 | 0.612 | 0.455 | 0.512 | 0.762 | 0.485
LC-2-ad | 0.49 | – | 0.49 | 0.382 | 0.39 | 0.493 | 0.454 | 0.432 | 0.526 | 0.564 | 0.483 | – | 0.516 | 0.391 | 0.487 | 0.659 | 0.432 | 0.677 | 0.648 | 0.625
NCI-H1944 | 1.06 | – | 0.985 | 1.05 | 1.06 | 1.18 | – | 1.13 | 1.04 | 1.15 | 0.283 | – | 0.277 | 0.234 | 0.292 | 0.528 | – | 0.595 | 0.514 | 0.661
HCC-827 | 1.1 | 0.844 | 0.96 | 1.02 | 0.944 | 0.963 | 0.759 | 0.931 | 0.844 | 0.921 | 0.415 | 0.348 | 0.408 | 0.449 | 0.4 | 0.932 | 0.59 | 0.843 | 0.96 | 0.602
HCC-78 | 0.618 | 0.746 | 0.693 | 0.685 | 1.1 | 0.349 | 0.32 | 0.353 | 0.342 | 0.319 | 0.432 | 0.236 | 0.278 | 0.335 | 0.563 | 0.377 | 0.429 | 0.421 | 0.429 | 0.467
NCI-H2085 | 1.03 | 1.11 | 1.08 | 1.13 | 1.14 | 0.71 | 0.764 | 0.846 | 0.762 | 0.778 | 0.8 | – | 0.791 | 0.641 | 0.576 | 0.789 | 0.577 | 0.838 | 0.774 | 0.804
PC-14 | 1.06 | 0.957 | 0.952 | 1.02 | 1.06 | 0.966 | 0.962 | 0.832 | 0.865 | 0.899 | 0.607 | – | 0.555 | 0.623 | 0.53 | 0.791 | 0.572 | 0.686 | 0.743 | 0.751
A-427 | 1.15 | 0.941 | 0.823 | 0.911 | 0.884 | 0.949 | 0.945 | 0.817 | 0.8 | 0.811 | 0.198 | 0.232 | 0.208 | 0.189 | 0.217 | 0.928 | 0.819 | 0.885 | 0.879 | 0.801
H3255 | 0.561 | 0.506 | 0.457 | 0.441 | 0.448 | 0.683 | 0.65 | 0.938 | 0.817 | 1 | 0.576 | 0.603 | 0.633 | 0.677 | 0.527 | 0.752 | 0.717 | – | 0.851 | 0.794
HCC-44 | 1.02 | 0.951 | 0.905 | 0.904 | 1.08 | 0.799 | 0.751 | 0.693 | 0.653 | 0.858 | 0.919 | 0.827 | 0.878 | 0.771 | 0.926 | 1.08 | 0.984 | 1.06 | 1.08 | 1.13
